For assay [1], the target named is Tyrosine-protein kinase ABL1 (Homo sapiens, UniProt P00519).
The next assay concerns the target Bcr/Abl fusion protein (Homo sapiens, UniProt P00519). The assay is classed as functional, cell-based, K562.

Tyrosine-protein kinase ABL1, sequence (P00519 whole entry, the tested form may be a part): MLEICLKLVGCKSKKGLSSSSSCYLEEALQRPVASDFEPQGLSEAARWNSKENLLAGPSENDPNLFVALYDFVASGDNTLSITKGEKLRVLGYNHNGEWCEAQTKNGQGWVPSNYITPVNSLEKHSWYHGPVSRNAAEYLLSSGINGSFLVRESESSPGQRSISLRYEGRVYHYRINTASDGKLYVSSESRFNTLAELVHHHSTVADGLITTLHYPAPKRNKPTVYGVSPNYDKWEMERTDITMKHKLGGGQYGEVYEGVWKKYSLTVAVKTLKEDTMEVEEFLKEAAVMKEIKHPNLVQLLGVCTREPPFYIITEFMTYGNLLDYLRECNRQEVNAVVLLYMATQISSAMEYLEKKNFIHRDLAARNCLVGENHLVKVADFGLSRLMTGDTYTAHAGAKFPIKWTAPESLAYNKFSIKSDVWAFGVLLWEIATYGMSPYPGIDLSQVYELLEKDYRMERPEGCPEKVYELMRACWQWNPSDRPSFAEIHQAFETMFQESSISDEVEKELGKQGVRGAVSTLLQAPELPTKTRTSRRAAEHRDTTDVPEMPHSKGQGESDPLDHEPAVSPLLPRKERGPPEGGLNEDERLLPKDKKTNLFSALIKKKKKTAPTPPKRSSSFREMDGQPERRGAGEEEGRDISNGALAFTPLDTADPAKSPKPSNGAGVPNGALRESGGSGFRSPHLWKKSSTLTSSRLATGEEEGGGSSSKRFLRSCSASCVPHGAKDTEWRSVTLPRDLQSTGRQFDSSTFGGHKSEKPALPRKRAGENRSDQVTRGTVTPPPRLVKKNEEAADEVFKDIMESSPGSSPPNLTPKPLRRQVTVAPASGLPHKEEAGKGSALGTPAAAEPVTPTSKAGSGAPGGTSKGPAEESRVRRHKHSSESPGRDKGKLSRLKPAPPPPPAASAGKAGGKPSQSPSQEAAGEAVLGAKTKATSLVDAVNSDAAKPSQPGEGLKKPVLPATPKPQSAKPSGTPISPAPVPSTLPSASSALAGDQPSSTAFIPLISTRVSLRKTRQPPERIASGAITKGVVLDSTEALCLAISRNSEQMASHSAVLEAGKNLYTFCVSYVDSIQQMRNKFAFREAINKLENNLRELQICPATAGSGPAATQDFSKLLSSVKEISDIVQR
Bcr/Abl fusion protein, sequence (P00519 whole entry, the tested form may be a part): as above
Bcr/Abl fusion protein, sequence (P11274 whole entry, further chain, the tested form may be a part): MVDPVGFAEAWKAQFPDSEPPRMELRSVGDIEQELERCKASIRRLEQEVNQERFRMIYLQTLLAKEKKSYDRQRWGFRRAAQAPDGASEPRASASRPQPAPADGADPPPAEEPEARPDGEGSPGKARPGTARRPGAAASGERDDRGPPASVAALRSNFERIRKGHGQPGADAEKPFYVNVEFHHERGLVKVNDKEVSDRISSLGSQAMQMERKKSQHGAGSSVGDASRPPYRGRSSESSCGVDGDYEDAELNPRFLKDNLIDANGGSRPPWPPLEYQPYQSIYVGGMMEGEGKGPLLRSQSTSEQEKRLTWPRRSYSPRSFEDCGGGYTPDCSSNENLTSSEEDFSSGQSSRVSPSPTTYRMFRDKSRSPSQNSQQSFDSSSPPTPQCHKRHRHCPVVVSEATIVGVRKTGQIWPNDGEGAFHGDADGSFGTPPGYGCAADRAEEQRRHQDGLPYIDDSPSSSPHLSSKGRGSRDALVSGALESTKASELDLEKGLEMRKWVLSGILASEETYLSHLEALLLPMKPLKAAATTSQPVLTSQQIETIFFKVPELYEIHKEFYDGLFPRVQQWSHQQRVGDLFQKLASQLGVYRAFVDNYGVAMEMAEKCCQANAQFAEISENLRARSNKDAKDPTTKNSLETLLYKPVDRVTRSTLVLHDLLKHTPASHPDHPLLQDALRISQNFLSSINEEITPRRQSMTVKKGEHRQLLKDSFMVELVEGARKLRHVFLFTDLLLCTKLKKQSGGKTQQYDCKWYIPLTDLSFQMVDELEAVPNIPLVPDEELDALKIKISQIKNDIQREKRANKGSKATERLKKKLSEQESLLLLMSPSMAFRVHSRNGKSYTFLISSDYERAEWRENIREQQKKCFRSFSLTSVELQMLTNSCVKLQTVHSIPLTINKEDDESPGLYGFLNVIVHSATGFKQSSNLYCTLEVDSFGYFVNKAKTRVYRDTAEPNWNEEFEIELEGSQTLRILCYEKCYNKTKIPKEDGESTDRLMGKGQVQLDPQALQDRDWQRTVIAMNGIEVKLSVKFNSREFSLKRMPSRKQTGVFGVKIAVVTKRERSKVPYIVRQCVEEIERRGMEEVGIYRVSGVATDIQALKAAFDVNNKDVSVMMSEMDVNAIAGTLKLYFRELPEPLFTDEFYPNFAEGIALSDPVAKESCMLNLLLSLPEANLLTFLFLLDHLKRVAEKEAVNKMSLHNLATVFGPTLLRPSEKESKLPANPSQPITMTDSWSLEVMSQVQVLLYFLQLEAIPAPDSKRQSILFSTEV

Take `COc1ccc(Oc2ccc3[nH]nc(-c4nc5cc(N6CCC(N7CCCCC7)CC6)ccc5[nH]4)c3c2)cc1`: half-maximal inhibition in assay [1] (IC50) was put at 220 nM.

`COc1ccc2[nH]nc(-c3nc4ccc(N5CCC(N6CCCCC6)CC5)cc4[nH]3)c2c1` returned an IC50 in assay [1] of 230 nM.

In assay [1], `c1ccc(COc2ccc3c(-c4nc5ccc(N6CCC(N7CCCCC7)CC6)cc5[nH]4)n[nH]c3c2)cc1` yielded an IC50 of 200 nM.

On to `c1ccc(CN2CCC(Nc3ccc4[nH]nc(-c5nc6cc(N7CCC(N8CCCCC8)CC7)ccc6[nH]5)c4c3)CC2)cc1`, for which the EC50 at Bcr/Abl fusion protein is 70 nM. In assay [1], half-maximal inhibition (IC50) required 7 nM.

Turning to `COc1cc2[nH]nc(-c3nc4ccc(N5CCC(N6CCCCC6)CC5)cc4[nH]3)c2cc1OCc1ccccc1`, the IC50 in assay [1] was 3 nM.

`c1coc(CNc2ccc3[nH]nc(-c4nc5cc(N6CCC(N7CCCCC7)CC6)ccc5[nH]4)c3c2)c1`: at Bcr/Abl fusion protein, the midpoint of the response, the EC50, lay at 30 nM. Further, the IC50 in assay [1] worked out at 60 nM.

On to `COc1ccccc1Oc1ccc2[nH]nc(-c3nc4cc(N5CCC(N6CCCCC6)CC5)ccc4[nH]3)c2c1`, for which the IC50 in assay [1] is 20 nM.

`c1ccc(Oc2ccc3[nH]nc(-c4nc5ccc(N6CCC(N7CCCCC7)CC6)cc5[nH]4)c3c2)cc1` displayed a 50% inhibitory concentration (IC50) in assay [1] of 30 nM.

`c1ccc(COc2cc3[nH]nc(-c4nc5cc(N6CCC(N7CCCCC7)CC6)ccc5[nH]4)c3cc2OCc2ccccc2)cc1` had an IC50 in assay [1] of 900 nM.

`c1csc(CNc2ccc3[nH]nc(-c4nc5cc(N6CCC(N7CCCCC7)CC6)ccc5[nH]4)c3c2)n1`: the EC50 at Bcr/Abl fusion protein was 10 nM. Moreover, the IC50 in assay [1] was found to be 10 nM.

As to `c1ccc(COc2ccc3[nH]nc(-c4nc5ccc(N6CCC(N7CCCCC7)CC6)cc5[nH]4)c3c2)cc1`, the EC50 at Bcr/Abl fusion protein amounted to 970 nM. In assay [1], this molecule yielded an IC50 of 60 nM.

With `O=C(Nc1ccc2[nH]nc(-c3nc4ccc(N5CCC(N6CCCCC6)CC5)cc4[nH]3)c2c1)c1ccco1`, the EC50 at Bcr/Abl fusion protein came out at 560 nM. The same molecule showed an IC50 in assay [1] of 150 nM.

For the molecule `CC(C)(C)NC(=O)Nc1ccc2[nH]nc(-c3nc4ccc(N5CCC(N6CCCCC6)CC5)cc4[nH]3)c2c1`, the midpoint of the response at Bcr/Abl fusion protein, the EC50, lay at 360 nM. This molecule showed an IC50 in assay [1] of 30 nM.

Molecule `c1ccc2c(-c3nc4ccc(N5CCC(N6CCCCC6)CC5)cc4[nH]3)n[nH]c2c1` registered an IC50 in assay [1] of 600 nM.

In turn, `COc1cccc(Oc2ccc3[nH]nc(-c4nc5cc(N6CCC(N7CCCCC7)CC6)ccc5[nH]4)c3c2)c1` returned an IC50 in assay [1] of 60 nM.

In the case of `c1ccc(CNc2ccc3[nH]nc(-c4nc5ccc(N6CCC(N7CCCCC7)CC6)cc5[nH]4)c3c2)cc1`, it took 1800 nM to reach a half-maximal effect at Bcr/Abl fusion protein (EC50). The molecule further returned an IC50 in assay [1] of 130 nM.

For the origin of these results see ChEMBL document CHEMBL1137421, “3-Benzimidazol-2-yl-1H-indazoles as potent c-ABL inhibitors” (Bioorg Med Chem Lett, 2006).
